What was measured:
Settings in all cases: 72 h
HepG2 [1] = test: drug sensitivity score (DSS) for viability; higher = more toxic; extreme values may be limits of the assay
Calu-3 [2] = test: as above
Caco-2 [3] = test: as above
Vero E6 [4] = test: as above
U2OS [5] = test: as above
HepG2 [6] = test: cell viability relative to DMSO; higher = less toxic
Calu-3 [7] = test: as above
Caco-2 [8] = test: as above
Vero E6 [9] = test: as above
U2OS [10] = test: as above
HepG2 [11] = test: relative viability EC50 (midpoint between 100% and the lowest measured viability); higher = less toxic
Calu-3 [12] = test: as above
Caco-2 [13] = test: as above
Vero E6 [14] = test: as above
U2OS [15] = test: as above

Compound	drug sensitivity score (HepG2 [1])	drug sensitivity score (Calu-3 [2])	drug sensitivity score (Caco-2 [3])	drug sensitivity score (Vero E6 [4])	drug sensitivity score (U2OS [5])	cell viability (HepG2 [6]; 1 nM) [%]	cell viability (HepG2 [6]; 10 nM) [%]	cell viability (HepG2 [6]; 100 nM) [%]	cell viability (HepG2 [6]; 1000 nM) [%]	cell viability (HepG2 [6]; 10000 nM) [%]	cell viability (Calu-3 [7]; 1 nM) [%]	cell viability (Calu-3 [7]; 10 nM) [%]	cell viability (Calu-3 [7]; 100 nM) [%]	cell viability (Calu-3 [7]; 1000 nM) [%]	cell viability (Calu-3 [7]; 10000 nM) [%]	cell viability (Caco-2 [8]; 1 nM) [%]	cell viability (Caco-2 [8]; 10 nM) [%]	cell viability (Caco-2 [8]; 100 nM) [%]	cell viability (Caco-2 [8]; 1000 nM) [%]	cell viability (Caco-2 [8]; 10000 nM) [%]	cell viability (Vero E6 [9]; 1 nM) [%]	cell viability (Vero E6 [9]; 10 nM) [%]	cell viability (Vero E6 [9]; 100 nM) [%]	cell viability (Vero E6 [9]; 1000 nM) [%]	cell viability (Vero E6 [9]; 10000 nM) [%]	cell viability (U2OS [10]; 1 nM) [%]	cell viability (U2OS [10]; 10 nM) [%]	cell viability (U2OS [10]; 100 nM) [%]	cell viability (U2OS [10]; 1000 nM) [%]	cell viability (U2OS [10]; 10000 nM) [%]	relative viability EC50 (HepG2 [11]) [µM]	relative viability EC50 (Calu-3 [12]) [µM]	relative viability EC50 (Caco-2 [13]) [µM]	relative viability EC50 (Vero E6 [14]) [µM]	relative viability EC50 (U2OS [15]) [µM]
Oc1c(I)cc(Cl)c2cccnc12 [clioquinol]	0.7	0	0.2	0	0	101	98.7	92.8	104	75.6	95	93.2	104	87.8	97.1	93.5	92.2	108	99.7	85.8	106	99.3	108	111	87.2	97.1	93.6	100	96.4	99.5	> 10	> 10	> 10	> 10	> 10
CONC(=N)c1ccc(-c2ccc(-c3ccc(C(=N)NOC)cc3)o2)cc1 [pafuramidine]	0	0	0	0	0	94.4	106	99.2	92.9	110	98.3	97.4	95.4	96	98.5	92.3	97	92.5	97.5	87.9	98.2	97.5	96	93.9	107	99.1	99.8	96.9	102	98.9	> 10	> 10	> 10	> 10	> 10
c1ccc(CCCN2CCN(CCOC(c3ccccc3)c3ccccc3)CC2)cc1	0.2	0	0.3	0	0	92.4	91.6	99.2	99.7	85.1	102	98.4	103	95.9	99.7	104	95	94.4	92.9	85.6	114	104	106	96.5	95.9	101	97	100	98.1	97.8	> 10	> 10	> 10	> 10	> 10
COc1cc(C#N)ccc1S(=O)(=O)Nc1ccc2c(c1)cc(C)c(=O)n2C [NI-57]	0.7	0	0.6	0	0	106	114	102	94.1	85.3	98.7	110	101	101	104	99.1	97.4	94.8	91.1	83.5	98.7	103	99.6	95.7	96	101	98.2	101	98.5	98.9	> 10	> 10	> 10	> 10	> 10
NCC(CS(=O)(=O)O)c1ccc(Cl)cc1 (stereo not given) [saclofen]	0	0	0.6	0	0	107	107	105	105	98	96.2	91.9	94.8	86.9	105	100	101	91	88.7	95.5	106	98.6	103	101	103	93.6	99.7	95.3	96.9	104	> 10	> 10	> 10	> 10	> 10
CC[C@]12CCCN3CCc4c(n(c5ccccc45)[C@@](O)(C(=O)OC)C1)[C@@H]32 [vincamine]	0	0	0	0	0	99.1	73.5	118	102	97.7	103	94.2	94.9	95.6	102	101	105	91.6	101	100	103	89.9	104	94	97.7	95.3	99.3	96.2	99.7	97.3	> 10	> 10	> 10	> 10	> 10
COc1cc(N2CCOCC2)ccc1Nc1ncc(Cl)c(Nc2ccccc2NS(C)(=O)=O)n1	7.8	10.4	6.1	8.2	7.6	103	101	94.7	70.6	23.1	103	84.2	84.2	59.6	19.6	99.5	91.7	94.1	80.8	35.6	99.1	110	99.1	76.9	15.6	102	97.2	98.8	75	27.4	1.29	0.667	1.49	1.47	1.29
CCOC(=O)c1c[nH]cn1 [C-751]	0	0	0	0	0	104	99.6	95.6	93.1	109	100	97.2	90.3	92.9	104	88.6	91.6	96.4	98.3	90.4	99.5	96.7	99.6	92.6	100	100	100	94.6	102	93	> 10	> 10	> 10	> 10	> 10
Cc1ccc([N+](=O)[O-])cc1S(=O)(=O)N(C)C	0	0	0	0	0	95.7	104	93.1	99.1	102	97.2	92.8	94.8	107	105	91.7	88.7	94.2	96.1	99.2	92.8	97.9	95.6	93.1	108	103	99.7	103	92.6	99.9	> 10	> 10	> 10	> 10	> 10
O=c1cccc2n1C[C@@H]1CNC[C@H]2C1 [cytisine]	0	0	0	0	0	102	101	96.4	97	114	101	95.6	99	95.4	104	93.3	92.2	92.4	91.3	96.5	88.2	98.6	92.5	97.3	108	102	96.2	101	100	102	> 10	> 10	> 10	> 10	> 10
CN1CCN(C(=O)c2nc3ccc(Cl)cc3[nH]2)CC1	0	0	0	0	0	104	107	96.7	106	93.8	100	99.9	87.9	96.9	101	106	100	96.5	92.2	90.9	97.9	106	97.8	102	104	105	97.1	103	98.1	101	> 10	> 10	> 10	> 10	> 10
CC(C)C(=O)Nc1ccc([N+](=O)[O-])c(C(F)(F)F)c1 [flutamide]	2	0	0	0	0	94.5	107	96.9	84.2	90.7	101	96.2	99.6	101	94.9	107	108	92.1	116	85.7	106	89.8	104	107	111	92	97.2	94.3	100	93.8	> 10	> 10	> 10	> 10	> 10
CCOc1ccc(Nc2nc(-c3c(C)nc4ccccn34)cs2)cc1 [JK-184]	5.3	8.3	9.2	15.5	16	94.9	99.5	90.6	86.9	40.1	101	90.5	103	57.6	39.4	102	96.9	91.3	57.4	33.2	98.3	97.6	77.8	31.3	29.5	106	100	79.9	26.9	19.7	1.68	0.715	0.578	0.152	0.209
C[C@@H]1CC(=O)c2c(ccc3c2C(=O)c2cccc(O)c2C3=O)C1 [ochromycinone]	1.4	0	0	0.6	0	87.4	91	96.6	96.5	76	100	104	103	104	92.8	107	96.1	99.6	110	112	100	100	104	93.3	85.8	101	100	93.9	99.7	99.9	> 10	> 10	> 10	> 10	> 10
CNCCC=C1c2ccccc2C=Cc2ccccc21 [norcyclobenzaprine]	0	0.1	0	0	0	94.7	93.4	102	98.3	89.3	109	96.6	103	105	84.8	94.2	96.4	97.7	102	90.5	95.9	97.5	92.6	94.5	95.2	102	98.1	100	106	100	> 10	> 10	> 10	> 10	> 10
